From a melting point compilation (Tetko et al.; mined from patent text by program, amines drawn as free bases though some values may be those of a salt)

| SMILES | melting point [°C] |
| --- | --- |
| COC(=O)CS(=O)(=O)N1CC=C(c2ccc(-c3ccccc3)cc2)CC1 | 182 to 183 |
| COc1cc2c(c3c1OC(C)(C)C3)C(c1cccc(C(=O)NC(C)(C)C(N)=O)c1)=NC(C)(C)C2 | 129 to 131 |
| Cn1c(CC(=O)O)c(-c2ccccc2)c2cc(Cl)ccc21 | 141 to 142 |
| COc1c(C2CCN(CCCCNC(=O)c3cc(-c4ccc(C#N)cc4)nn3CCO)CC2)ccc2c1CCCC2 | 152 |
| Fc1ccc(C#Cc2ccnc(Cl)n2)cc1 | 125 to 126 |
| COC(=O)CCCCCc1c(OC)cc(C(C)(C)C)c(O)c1NC(=O)NNC(=O)Nc1cc(OC)cc(C(C)(C)C)c1O | 157 to 159 |
| COc1cc(OC)c(-c2cccn2C)cc1C=CC(=O)c1ccc(S(=O)(=O)Nc2cc(C)on2)cc1 | 113 to 115 |
| CC(=O)Nc1nc(-c2cc(C)cc(C)c2)c(-c2ccncc2)s1 | 284 to 286 |
| CC(C)C(=O)c1nccnc1SCc1ccco1 | 57 to 58 |
| Cc1ccc(-c2ccc3c(c2)C=C(C(=O)Nc2ccc(CNCC4CCCCC4)cc2)CCO3)cc1 | 154 to 155 |
| C[C@@H]1C(=O)N(CO)Cc2ccccc2[C@@H]1C (relative stereo) | 91 to 92 |
| Cc1nn(C)c(Cl)c1C(=O)Nc1cccc2c1CCC2(C)C | 175 |
| Cc1cccc(Cl)c1OC1CN(C(=O)N(C)C)C1 | 46 to 47 |
| CN(C)C(=O)C(C#N)=Cc1cc(O)c(O)c([N+](=O)[O-])c1 | 183 to 185 |
| O=c1[nH]c2ccccc2c2cc(C(O)c3ccccc3)nn12 (stereo not given) | 231 to 233 |
| COc1ccc(C(=N)NS(=O)(=O)C=Cc2ccc(Cl)c(Cl)c2)cc1OC | 205 to 210 |
| O=c1[nH]cc(-c2ccncc2)cc1[N+](=O)[O-] | 258 to 260 |
| CN1CC(CO)C=C2c3cccc4[nH]c(Cl)c(c34)CC21 (stereo not given) | 207 |
| COc1ccc(-c2ccc(N3CCCN(c4ccc(-c5ccc(OC)cc5)cn4)CC3)nc2)cc1 | 254 to 256 |

| SMILES | melting point [°C] |
| --- | --- |
| CS(=O)(=O)c1cc(C(N)Nc2ccccc2C(=O)Nc2cccc(C(F)(F)F)c2)ccn1 (stereo not given) | 214 |
| CCOC(=O)N1CCC(=C2c3ccccc3CCc3cccnc32)CC1 | 106 to 107 |
| Nc1ccc(Oc2cc(Cl)ncn2)cc1 | 136 to 138 |
| COC(=O)c1nc2c(c(-c3ccccc3)nn2-c2ccccc2)c(N)c1C(=S)OC | 160 to 161 |
| O=S(=O)(CCO)CCCS(=O)(=O)CCO | 158 to 161 |
| CC(C)(C)C(=O)SCCNC(=O)CCNC(=O)OCc1ccccc1 | 87 to 88 |
| CCOC(=O)c1ccc(C(=O)CC(O)(c2cc(Cl)cc(Cl)c2)C(F)(F)F)cc1C (stereo not given) | 72 to 74 |
| c1ccc(-c2nc3cc(-c4nc(COc5ccc(CCCn6ccnc6)cc5)co4)ccc3o2)cc1 | 166 to 167 |
| COc1cc2ncc(C#N)c(Cl)c2cc1OC | 220 to 223 |
| CNC(=O)N1CC(Oc2cccc(C(N)=O)c2)C1 | 238 to 240 |
| COC(=O)Nc1ccc(C2=NNC(=O)CC2C)cc1 (stereo not given) | 228 to 229 |
| O=C1C=C(O)CC(c2ccc3c(c2)CCC3)C1 (stereo not given) | 198 |
| Cc1cc(Cl)cc(C(=O)NC2(C)CS(=O)(=O)C2)c1NC(=O)c1cc(C(F)(F)F)nn1-c1ncccc1Cl | 168 to 171 |
| COC(=O)CCOc1ccccc1CNC(=O)C1Cc2ccccc2N1S(=O)(=O)c1ccc(-c2cccc(C(F)(F)F)c2)cc1 (stereo not given) | 131 |
| CC(=O)SCC1(CSC(C)=O)C(=O)N2CCCC(C(=O)OC(C)(C)C)N2C1=O (stereo not given) | 85 to 86 |
| O=c1oc(-c2ccccc2)cc(O)c1C(CC1CC1)SC1CCCC1 (stereo not given) | 75 to 80 |
| Nc1ccccc1C(=O)CCC(=O)O | 103 to 107 |
| Cc1cc(O)ccc1N1CCc2c(C)nc3ccccc3c21 | 315 to 318 |
| Cc1cnc2n(c1=O)C(C)CCC2=NNc1ccccc1 (stereo not given) | 165 to 166 |

Second part, the compound after the results:

| melting point [°C] | SMILES |
| --- | --- |
| 203 to 207 | CCCCCc1ccccc1C=CC=C1SC(=S)N(CC(=O)O)C1=O |
| 95 to 99 | CCCCCCCCCCCCCCOc1ccc(C(=O)O)cc1 |
| 279 to 281 | CCc1cc(=O)c2nc(OC)ccc2[nH]1 |
| 169 | CCOC(=O)N1CCc2nc3c(Cl)cccc3c(C)c2CC1 |
| 118 to 120 | CC(C)Cc1cc(C(N)=O)nn1C |
| 182 to 184 | CCCCCCCNC(=O)Nc1ccc(N2CCCC2)cc1C(=O)NCC1CCN(C(c2ccccc2)c2ccccc2)CC1 |
| 308 | COc1ccc(N2CCC(c3c(N)nc(N)[nH]c3=O)CC2)cc1 |
| 97 to 99 | CCOC(=O)c1nn(-c2ccc(C=O)cc2)nc1C |
| 132 to 134 | CCN1CC(NC(=O)c2cc(Cl)c(N)cc2OC)C=N1 (stereo not given) |
| > 175 | CCCCC(CCCC)n1c(=O)sc2c(=O)[nH]c(N)nc21 |
| 238 to 239 | CCc1cc2c(O)c(C(=O)O)cnc2s1 |
| 280 | CNN(NC)C(=O)Nc1cccc2c1C(=O)c1c-2n[nH]c1-c1ccc(OC)s1 |
| 198 to 200 | CN1CCN(C(=O)Cn2c(=O)sc3ncc(Cl)cc32)CC1 |
| 210 to 212 | Cc1c(OCCBr)ccc2c(=O)cc(N3CCOCC3)oc12 |
| 85 to 87 | CC1Sc2nc(SCc3ccccc3)nn2C1=O (stereo not given) |
| 226 to 227 | COc1cc(OC)c2c(=O)[nH]c(-c3ccc(OCCN4CCCC4)cc3)nc2c1 |
| > 260 | Cc1nc2c(s1)C(=O)c1ccccc1C2=O |
